Source: PubChem BioAssay (NCI)
Values joined by “and” are separate entries in the source; they are usually repeats but may differ in a detail not shown here. Equal entries are not always repeated.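 Following 48 hours of exposure in 96-well plates, responses at five concentrations were used to interpolate endpoints linearly. Abbreviation: GI50, concentration required for 50% inhibition of growth. TGI is the concentration that stops growth completely.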

These compounds were tested on MCF7 breast (assay: NCI-60 cell line screen, 48 h).
`CN(C)CCCn1c2c(c3ccccc3c1=O)C(=O)c1ccccc1-2` gave a GI50 of 0.554 µM and a TGI of 12.2 µM.
Compound `COc1ccc2c(c1)C=C([N+](=O)[O-])C(C1OC(C)(C)OC1C1COC(C)(C)O1)O2` (stereo not given) has a TGI of 9.12 µM.
`CN(C)CCNC(=O)c1cccc(C(=O)Nc2ccccc2)c1[N+](=O)[O-]` gave a TGI of over 100 µM.
Work on `CC(=O)OC1Oc2ccccc2-c2oc(=O)c(-c3cc4ccc(N(C)C)cc4oc3=O)cc21` (stereo not given) yielded a GI50 of 10.2 µM and a TGI of 29.8 µM.
With `CCC1(O)C(=O)OCc2c1cc1n(c2=O)Cc2cc3ccc(C=O)cc3nc2-1` (stereo not given) the GI50 was 0.187 µM and the TGI was 50 µM and 10.6 µM.
Work on `COc1ccc2c(c1)C(=O)c1c-2n(CCCn2ccnc2)c(=O)c2ccccc12` yielded a GI50 of 0.0241 µM and a TGI of 1.84 µM.
`COc1cc2oc(-c3ccc(O)cc3)cc(=O)c2c(OC)c1OC` was tested, and the TGI was over 100 µM.
In the case of `Fc1cc(F)c(COc2cc(Cn3cnc4c(Cl)nc(Cl)nc43)ccc2C23CC4CC(CC(C4)C2)C3)cc1F`, the GI50 is reported as 11 µM and the TGI is reported as 27.5 µM.
`CC/C=C\C[C@@H]1C/C=C2/C(=O)C=C[C@H]2C/C=C\CCCC(=O)O1` was tested, and the GI50 was 0.356 µM and the TGI was 2.12 µM.
`NC(=S)N/N=C/c1ccc(OC(=O)COc2ccc(Cl)cc2)cn1` gave a GI50 of 3.71 µM and a TGI of over 100 µM.
In the case of `O=C(N/N=C/c1cccc(O)c1O)c1ccccc1`, the GI50 is reported as 0.357 µM and the TGI is reported as over 100 µM.
`c1ccc(C2=NNC3c4ccccc4-c4ccccc4N3C2)cc1` (stereo not given) gave a TGI of over 100 µM.
With `CN/N=C(/CCN1CCCC1)CC(c1ccccc1)c1c(O)c2ccccc2oc1=O` (stereo not given) the TGI was over 100 µM.
Compound `COc1ccc(OC)c(/C=C/C(=O)N/N=C/c2ccc(Cl)cc2)c1` has a GI50 of 0.0529 µM and a TGI of over 57 µM.
In the case of `O=C1c2ccccc2-c2c1c1ccccc1c(=O)n2Cc1ccccc1`, the TGI is reported as over 100 µM.
`CCN(CC)c1sc(N(CC)CC)c2c1SSSSS2` gave a GI50 of 1.08 µM.
With `O=C(c1cccc(O)c1O)c1cn(Cc2ccc(F)cc2)c2cccc(O)c12` the GI50 was 2.14 µM and the TGI was 13.1 µM.
Work on `Nc1ncc(-c2cnn(CCO)c2)c2scc(-c3ccc(NC(=O)Nc4cccc(F)c4)cc3)c12` yielded a GI50 of 0.226 µM and a TGI of 3.7 µM.
`COc1cc(C2=NN(C(C)=O)C(c3ccc(OC(C)=O)cc3OC(C)=O)O2)c(OC(C)=O)c2ccccc12` (stereo not given) showed a GI50 of 2.73 µM and a TGI of 16.1 µM.
In the case of `COC(=O)Nc1nc2ccc(Oc3ccc(NC(=O)Nc4ccccc4)cc3)cc2[nH]1`, the GI50 is reported as 0.0932 µM.
Compound `O=C1c2c(Br)sc(Br)c2C(NC(=O)C(F)(F)F)C1O` (stereo not given) has a TGI of 45.3 µM.
`CCN(CC)CCCC(C)Nc1c(C)cnc2cc(Cl)c(C)cc12` (stereo not given) showed a GI50 of 16.2 µM and a TGI of 35.3 µM.
For `CC(=O)OC1CC(O)C23COC(O)C1(C)C2CC(O)C1(C)C3C(=O)C(O)C2(C)C(c3ccoc3)CC3OC321` (stereo not given), the GI50 was over 100 µM and the TGI was over 100 µM.
`COc1ccc(C(C)c2cc3c(cc2OC)OCO3)cc1` (stereo not given) was tested, and the TGI was 40.6 µM.
Compound `CCc1[nH]c(=O)nc(N)c1-c1ccc(N2CCCCC2)c([N+](=O)[O-])c1` has a TGI of over 100 µM.
Compound `COC(=O)C(=O)C(C(=O)C(=O)Nc1ccccc1C(N)=O)c1nc2ccc(Cl)cc2[nH]c1=O` (stereo not given) has a TGI of over 100 µM.
`CCC#CC[C@H]1C/C=C2/C(=O)C=C[C@@H]2C/C=C\CCCC(=O)O1` gave a GI50 of 0.203 µM and a TGI of 5.82 µM.
For `CCN(CC)CCN1CC(O)=C(c2nc(-c3ccc(Cl)cc3)cs2)C1=N`, the GI50 was 1.42 µM and the TGI was 3.36 µM.
`COc1cc(OC)c(/C=C/C(=O)c2c(OC)cccc2OC)c(OC)c1` showed a GI50 of 0.392 µM and a TGI of over 100 µM.

What follows are compounds tested on SK-MEL-2 melanoma (assay: NCI-60 cell line screen, 48 h).
With `CN(C)CCCn1c2c(c3ccccc3c1=O)C(=O)c1ccccc1-2` the GI50 was 13.1 µM and the TGI was over 100 µM.
`COc1ccc2c(c1)C=C([N+](=O)[O-])C(C1OC(C)(C)OC1C1COC(C)(C)O1)O2` (stereo not given) was tested, and the TGI was 4.36 µM.
`CN(C)CCNC(=O)c1cccc(C(=O)Nc2ccccc2)c1[N+](=O)[O-]` showed a TGI of over 100 µM.
`CC(=O)OC1Oc2ccccc2-c2oc(=O)c(-c3cc4ccc(N(C)C)cc4oc3=O)cc21` (stereo not given) was tested, and the GI50 was 8.61 µM and the TGI was 29.9 µM.
In the case of `CCC1(O)C(=O)OCc2c1cc1n(c2=O)Cc2cc3ccc(C=O)cc3nc2-1` (stereo not given), the GI50 is reported as 17.6 µM and the TGI is reported as 40.6 µM and 39.2 µM.
In the case of `COc1ccc2c(c1)C(=O)c1c-2n(CCCn2ccnc2)c(=O)c2ccccc12`, the GI50 is reported as 0.843 µM and the TGI is reported as 8.82 µM.
With `Fc1cc(F)c(COc2cc(Cn3cnc4c(Cl)nc(Cl)nc43)ccc2C23CC4CC(CC(C4)C2)C3)cc1F` the GI50 was 21 µM and the TGI was 56.1 µM.
Compound `CC/C=C\C[C@@H]1C/C=C2/C(=O)C=C[C@H]2C/C=C\CCCC(=O)O1` has a GI50 of 1.8 µM and a TGI of 4.23 µM.
For `NC(=S)N/N=C/c1ccc(OC(=O)COc2ccc(Cl)cc2)cn1`, the GI50 was 9.69 µM and the TGI was over 100 µM.
Compound `O=C(N/N=C/c1cccc(O)c1O)c1ccccc1` has a GI50 of 11.7 µM and a TGI of over 100 µM.
With `c1ccc(C2=NNC3c4ccccc4-c4ccccc4N3C2)cc1` (stereo not given) the TGI was 45.8 µM.
For `CN/N=C(/CCN1CCCC1)CC(c1ccccc1)c1c(O)c2ccccc2oc1=O` (stereo not given), the TGI was over 100 µM.
`COc1ccc(OC)c(/C=C/C(=O)N/N=C/c2ccc(Cl)cc2)c1` gave a GI50 of 1.06 µM and a TGI of over 100 µM.
With `O=C1c2ccccc2-c2c1c1ccccc1c(=O)n2Cc1ccccc1` the TGI was over 100 µM.
`CCN(CC)c1sc(N(CC)CC)c2c1SSSSS2` gave a GI50 of 3.02 µM and a TGI of 14.6 µM.
With `O=C(c1cccc(O)c1O)c1cn(Cc2ccc(F)cc2)c2cccc(O)c12` the GI50 was 7.93 µM and the TGI was 23.2 µM.
In the case of `Nc1ncc(-c2cnn(CCO)c2)c2scc(-c3ccc(NC(=O)Nc4cccc(F)c4)cc3)c12`, the GI50 is reported as 0.364 µM and the TGI is reported as 1.66 µM.
`COc1cc(C2=NN(C(C)=O)C(c3ccc(OC(C)=O)cc3OC(C)=O)O2)c(OC(C)=O)c2ccccc12` (stereo not given) was tested, and the GI50 was 10.8 µM and the TGI was 49.4 µM.
In the case of `COC(=O)Nc1nc2ccc(Oc3ccc(NC(=O)Nc4ccccc4)cc3)cc2[nH]1`, the GI50 is reported as 0.109 µM and the TGI is reported as 2.19 µM.
`O=C1c2c(Br)sc(Br)c2C(NC(=O)C(F)(F)F)C1O` (stereo not given) was tested, and the TGI was 40.9 µM.
Compound `CCN(CC)CCCC(C)Nc1c(C)cnc2cc(Cl)c(C)cc12` (stereo not given) has a GI50 of 20.4 µM and a TGI of over 70.6 µM.
`CC(=O)OC1CC(O)C23COC(O)C1(C)C2CC(O)C1(C)C3C(=O)C(O)C2(C)C(c3ccoc3)CC3OC321` (stereo not given) showed a TGI of over 100 µM.
For `COc1ccc(C(C)c2cc3c(cc2OC)OCO3)cc1` (stereo not given), the TGI was 2.49 µM.
Work on `CCc1[nH]c(=O)nc(N)c1-c1ccc(N2CCCCC2)c([N+](=O)[O-])c1` yielded a TGI of over 100 µM.
Compound `COC(=O)C(=O)C(C(=O)C(=O)Nc1ccccc1C(N)=O)c1nc2ccc(Cl)cc2[nH]c1=O` (stereo not given) has a TGI of over 100 µM.
For `CCC#CC[C@H]1C/C=C2/C(=O)C=C[C@@H]2C/C=C\CCCC(=O)O1`, the GI50 was 1.17 µM and the TGI was 3.52 µM.
With `CCN(CC)CCN1CC(O)=C(c2nc(-c3ccc(Cl)cc3)cs2)C1=N` the GI50 was 16.9 µM and the TGI was over 100 µM.
`COc1cc(OC)c(/C=C/C(=O)c2c(OC)cccc2OC)c(OC)c1` was tested, and the GI50 was 0.807 µM and the TGI was over 100 µM.

Each compound was assayed on SW-620 colon (assay: NCI-60 cell line screen, 48 h).
`CN(C)CCCn1c2c(c3ccccc3c1=O)C(=O)c1ccccc1-2` was tested, and the GI50 was 0.771 µM and the TGI was 10.8 µM.
For `COc1ccc2c(c1)C=C([N+](=O)[O-])C(C1OC(C)(C)OC1C1COC(C)(C)O1)O2` (stereo not given), the TGI was 6.81 µM.
For `CN(C)CCNC(=O)c1cccc(C(=O)Nc2ccccc2)c1[N+](=O)[O-]`, the TGI was over 100 µM.
For `CC(=O)OC1Oc2ccccc2-c2oc(=O)c(-c3cc4ccc(N(C)C)cc4oc3=O)cc21` (stereo not given), the GI50 was 20.6 µM and the TGI was over 100 µM.
With `CCC1(O)C(=O)OCc2c1cc1n(c2=O)Cc2cc3ccc(C=O)cc3nc2-1` (stereo not given) the TGI was 50 µM and > 100 µM.
With `COc1ccc2c(c1)C(=O)c1c-2n(CCCn2ccnc2)c(=O)c2ccccc12` the GI50 was 0.247 µM and the TGI was 7.59 µM.
`COc1cc2oc(-c3ccc(O)cc3)cc(=O)c2c(OC)c1OC` showed a TGI of over 100 µM.
`Fc1cc(F)c(COc2cc(Cn3cnc4c(Cl)nc(Cl)nc43)ccc2C23CC4CC(CC(C4)C2)C3)cc1F` gave a GI50 of 12.3 µM and a TGI of 29.3 µM.
With `CC/C=C\C[C@@H]1C/C=C2/C(=O)C=C[C@H]2C/C=C\CCCC(=O)O1` the GI50 was 0.483 µM and the TGI was 2.02 µM.
`NC(=S)N/N=C/c1ccc(OC(=O)COc2ccc(Cl)cc2)cn1` was tested, and the GI50 was 3.29 µM and the TGI was over 100 µM.
`O=C(N/N=C/c1cccc(O)c1O)c1ccccc1` was tested, and the GI50 was 0.635 µM and the TGI was over 100 µM.
In the case of `c1ccc(C2=NNC3c4ccccc4-c4ccccc4N3C2)cc1` (stereo not given), the TGI is reported as over 100 µM.
For `CN/N=C(/CCN1CCCC1)CC(c1ccccc1)c1c(O)c2ccccc2oc1=O` (stereo not given), the TGI was over 100 µM.
With `COc1ccc(OC)c(/C=C/C(=O)N/N=C/c2ccc(Cl)cc2)c1` the GI50 was 0.0577 µM and the TGI was over 100 µM.
With `O=C1c2ccccc2-c2c1c1ccccc1c(=O)n2Cc1ccccc1` the TGI was over 100 µM.
